Holding throughout (experiment): Antimicrobial photodynamic protocol, viable cell count after laser exposure
Type in all cases: cell-based

Experiment [1] relates to Escherichia coli (NCTC10418). To be noted: E. coli; for Antimicrobial activity (Log10 reduction of viable cells): green laser, 3 min laser exposure. The protocol: (§1) The organisms used in this study were Escherichia coli (NCTC10418) and Staphylococcus epidermidis (ATCC12228), Pseudomonas aeruginosa (NCIMB10548), Methicillin Resistant Staphylococcus aureus (NCTC12493), Streptococcus pyogenes (ATCC19615) and Acinetobacter baumannii (NCIMB9214); they were stored at −80° C. These organisms were subcultured, when needed, on Brain Heart Infusion (BHI) Agar overnight aerobically at 37° C. The plates were then stored at 4° C. for no more than two weeks. Bacterial suspensions used for the experiments were grown in Brain Heart Infusion (BHI) broth after inoculation with a loopful of cells from a single colony on a BHI plate and incubated aerobically for 24 h at 37° C. statically. These overnight cultures were then diluted 1 in 100 in PBS. The resulting bacterial suspension contained approximately 10^6 CFU/mL. Each cell suspension was used to disperse pure PS, e.g. PBAE-TBO, to concentrations of 0.2 mg/mL or PBAEs-PS derivatives to an equivalent PS concentration.
(§2) 200 μL aliquots of the resulting suspension were immediately poured in a GREINER 96 U-BOTTOM well plate. The well plate was then irradiated with a laser light (633 nm) using a 500 mW red laser (RRL-635 nm-500 mW-1080060, Changchun New Industries Optoelectronics, China) or a 500 mW green laser (MGL-FN-532 nm-500 mW-15097031, Changchun New Industries Optoelectronics, China) for different time periods (between 5 sec to 3 min). The red laser was employed for TBO while the green laser was used for RB and ERY.
(§3) After exposure the bacterial cells (L+S+) were counted through serial dilutions and then plating on BHI Agar. Along this test, different experiments were performed including the testing of dark toxicity (labelled with L−S+), samples exposed uniquely to laser light (L+S−) or samples not expose to either laser light and PBAE (L−S−).
(§4) Through the experiment prepared samples, well plates and inoculated plates were immediately covered with aluminium foil to reduce biased measuring results due to exposure of any light besides the laser. All plates were incubated after the experiment for 24 hours at 37° C. All experiments were performed on three independent cultures.

For experiment [2], the system named is Methicillin Resistant Staphylococcus aureus (NCTC12493). To be noted: for Antimicrobial activity (Log10 reduction of viable cells): green laser, 5 sec, MRSA NCTC12493. The protocol: as §1, §2, §3, §4
The subject of experiment [3] is Acinetobacter baumannii (NCIMB9214). To be noted: TBO series, A. baumannii. The protocol: as §1, §2, §3, §4
For experiment [4], the system named is Streptococcus pyogenes (ATCC19615). To be noted: TBO series. The protocol: as §1, §2, §3, §4
Experiment [5] deals with Pseudomonas aeruginosa (NCIMB10548). To be noted: TBO series, P. aeruginosa. As for the experimental part:
as §1, §2, §3, §4

Experiment [6] deals with Staphylococcus epidermidis (ATCC12228). To be noted: TBO series. As for the experimental part:
as §1, §2, §3, §4

[7] abbreviates: L+S+, red laser, 0.2 mg/mL TBO equivalent.

Entries after “also recorded” stand apart in the source; their conditions may differ.

We go through 3 compounds from patent publication US20200079906A1, “PHOTODYNAMIC THERAPY COMPLEX” (University College Cardiff Consultants Limited, priority 2015, published 2020).

Regarding `O=C1OC2(c3ccccc31)c1cc(I)c(O)c(I)c1Oc1c2cc(I)c(O)c1I` [ERY, Erythrosin B], the “Antimicrobial activity (Log10 reduction of viable cells)” value in experiment [1] (ERY series) and in experiment [2] (ERY series) was “exhibit antimicrobial activity; also recorded: not as effective as RB” throughout.
On to `O=C([O-])c1c(Cl)c(Cl)c(Cl)c(Cl)c1-c1c2cc(I)c(=O)c(I)c-2oc2c(I)c([O-])c(I)cc12.[Na+].[Na+]` [RB, Rose Bengal], for which the “Antimicrobial activity (Log10 reduction of viable cells)” value in experiment [1] (RB series) and in experiment [2] (RB series) was “exhibit antimicrobial activity” each time.
As for `Cc1cc2nc3ccc(=[N+](C)C)cc-3sc2cc1N.[Cl-]` [TBO, Toluidine Blue O], the “Antimicrobial effect of laser exposure (reduction of viable cells)” value in experiment [3] (setting [7]) is “tendencies of progressive reduction”; in experiment [4] (setting [7]) it was “tendencies of progressive reduction”; in experiment [5] (setting [7]), “tendencies of progressive reduction”; in experiment [6] (setting [7]) it was “tendencies of progressive reduction”; in experiment [1] (TBO series, L+S+, red laser, 0.2 mg/mL TBO equivalent), “tendencies of progressive reduction”; in experiment [2] (TBO series, L+S+, red laser, 0.2 mg/mL TBO equivalent, MRSA) it was “tendencies of progressive reduction”. Further, the “Cell reduction without irradiation (dark toxicity)” value is given as “did not return any cell reduction” in experiment [3] (L-S+); “did not return any cell reduction” in experiment [4] (L-S+); “did not return any cell reduction” in experiment [5] (L-S+); “did not return any cell reduction” in experiment [6] (L-S+); “did not return any cell reduction” in experiment [1] (TBO series, L-S+); “did not return any cell reduction” in experiment [2] (TBO series, L-S+, MRSA).
